Experimental data reported in US20240025903A1, “Bicyclic Compounds and Uses Thereof for the Treatment of Diseases” (Athira Pharma, Inc., priority 2020, published 2024).
Read-outs that look alike come from different tables or passages of the source.

Legend:
[1] = Non-specific protein binding (rapid equilibrium dialysis); format: in vitro ADME, Sprague-Dawley rats; conditions: both sexes, Sprague-Dawley, RED device, 4-hour incubation at 37° C.
Experimental: Plasma and tissue exposures of exemplary compounds were scaled by their non-specific affinity for protein binding in target tissues or fluids to determine the fraction of compound available for interaction with the target. Non-specific binding was determined in blood plasma and brain homogenate collected from mixed-sex Sprague-Dawley rats.
Known concentrations of test compounds were mixed with plasma or brain homogenate and incubated in the donor chamber of a rapid equilibrium dialysis (RED) device with empty PBS buffer in the receiving chamber. After a 4-hour incubation at 37° C. in an orbital shaking incubator, compound in each chamber was quantified by LC-MS/MS. The unbound fraction (fu,tissue) was calculated using the following formula:
[formula] • where: • fu,tissue is the unbound fraction in the tissue; • fu,homogenate is the ratio of concentration in the buffer chamber to concentration in the sample chamber; and • D is the dilution factor used to produce the sample.

[2] = system: HepG2 cells; experiment: Cytotoxicity assay (LDH release); format: cell-based; conditions: 48 hours, 0.1 to 100 μM
Method in brief: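 Cells in EMEM+10% FBS treated 48 h at 37° C with compounds at 0.1-100 μM; cerivastatin 0.5 μM served as positive control. LDH released into supernatant measured colorimetrically at 490 nm, range set by untreated and full-lysis controls; >20% above negative control counted as cytotoxic.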

[3] = In vivo pharmacokinetics; set-up: species or system Sprague-Dawley rats; conditions: both sexes, Sprague-Dawley, rat; for Tmax: plasma; for AUC: dose-corrected plasma AUC; for Cmax: dose-corrected plasma Cmax
Experimental: Administration of exemplary compounds by selected routes followed by blood collection and compound quantification in plasma was used to determine the pharmacokinetic (PK) profile of the compounds. Compounds were administered to mixed-sex Sprague-Dawley rats of at least 250 grams by dissolving the test compound in DMSO and then diluting the compound into an appropriate vehicle, either saline or saline and poly-ethylene glycol. Dosing was accomplished by either tail vein puncture (IV) or oral gavage (PO), and animals were administered compound according to their weight at 1 mL/kg. At selected intervals following administration (10, 20, 40, 60, 120, and 360 minutes), blood was collected by tail vein blood draw. Whole blood was then processed by centrifugation to produce plasma. Compound content in plasma samples was quantified by LC-MS/MS and compared to an internal standard and standard curves to determine concentration accurately. Plasma concentrations were then averaged for each time point and plotted as a function of time. Area under the curve was calculated by integration of the curve, Cmax was the highest concentration achieved in plasma, and Tmax was determined by the timing of Cmax.

[4] = biological target: T1, HGF/MET system (Homo sapiens, UniProt P08581+P14210); experiment: Phospho-MET ELISA; format: cell-based; conditions: HEK293 cells, 1 ng/mL recombinant HGF, 15 minutes, pMET ELISA
T1 construct: HEK293 cells were prepared by passage into 6-well multi-plates; endogenous in cells; host or cells: HEK293
T1 sequence (P08581 308-1390 limits assumed): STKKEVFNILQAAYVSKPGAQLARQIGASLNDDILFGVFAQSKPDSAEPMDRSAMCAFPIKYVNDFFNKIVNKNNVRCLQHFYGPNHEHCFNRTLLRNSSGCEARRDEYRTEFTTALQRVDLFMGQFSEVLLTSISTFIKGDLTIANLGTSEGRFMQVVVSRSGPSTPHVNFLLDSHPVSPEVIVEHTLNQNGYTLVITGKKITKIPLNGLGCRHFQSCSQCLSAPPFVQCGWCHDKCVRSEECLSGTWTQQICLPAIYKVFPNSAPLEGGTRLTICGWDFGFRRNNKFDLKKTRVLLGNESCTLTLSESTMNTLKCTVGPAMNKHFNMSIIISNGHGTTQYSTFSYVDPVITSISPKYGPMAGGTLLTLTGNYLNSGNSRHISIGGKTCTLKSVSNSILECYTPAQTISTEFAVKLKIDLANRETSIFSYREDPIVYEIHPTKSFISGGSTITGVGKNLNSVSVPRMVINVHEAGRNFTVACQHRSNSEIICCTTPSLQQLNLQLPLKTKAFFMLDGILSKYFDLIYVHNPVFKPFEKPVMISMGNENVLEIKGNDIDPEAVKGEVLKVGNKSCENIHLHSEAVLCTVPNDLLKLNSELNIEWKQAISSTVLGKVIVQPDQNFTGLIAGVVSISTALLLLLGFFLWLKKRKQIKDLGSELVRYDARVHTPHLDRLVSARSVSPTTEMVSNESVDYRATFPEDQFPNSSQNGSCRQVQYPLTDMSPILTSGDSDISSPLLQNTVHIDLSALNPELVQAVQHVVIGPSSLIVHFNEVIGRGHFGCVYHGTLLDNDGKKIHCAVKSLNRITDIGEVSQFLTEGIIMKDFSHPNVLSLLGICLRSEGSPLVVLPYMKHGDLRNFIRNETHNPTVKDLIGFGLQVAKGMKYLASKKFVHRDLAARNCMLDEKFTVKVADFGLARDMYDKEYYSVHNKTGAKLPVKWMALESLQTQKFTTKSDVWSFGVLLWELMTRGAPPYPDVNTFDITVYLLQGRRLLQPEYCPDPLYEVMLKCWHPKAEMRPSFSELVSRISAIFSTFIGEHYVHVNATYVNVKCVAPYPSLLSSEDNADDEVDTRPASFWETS
T1 sequence (P14210 32-494 limits assumed): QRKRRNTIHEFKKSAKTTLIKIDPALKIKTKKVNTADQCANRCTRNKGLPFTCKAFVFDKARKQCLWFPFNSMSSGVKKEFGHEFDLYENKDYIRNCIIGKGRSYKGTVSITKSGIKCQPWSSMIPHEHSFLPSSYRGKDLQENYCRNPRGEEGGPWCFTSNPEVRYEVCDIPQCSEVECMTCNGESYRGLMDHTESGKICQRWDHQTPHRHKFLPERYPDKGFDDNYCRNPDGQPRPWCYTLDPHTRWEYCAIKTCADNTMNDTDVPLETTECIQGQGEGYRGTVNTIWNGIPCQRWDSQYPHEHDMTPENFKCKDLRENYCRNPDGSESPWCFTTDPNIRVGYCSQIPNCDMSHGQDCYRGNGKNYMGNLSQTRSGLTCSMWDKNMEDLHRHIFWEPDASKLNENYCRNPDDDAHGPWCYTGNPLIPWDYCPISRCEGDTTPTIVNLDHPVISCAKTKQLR
Method in brief: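 Serum-starved (≥8 h) HEK293 cells treated with compound plus 1 ng/mL recombinant HGF for 15 min at 37° C in triplicate, then lysed in RIPA. Equal protein (50–100 μg, BCA-normalized) run in pMET sandwich ELISA, A450 read. Responses scaled 1–10 between 1 ng/mL and 10 ng/mL HGF means, using peak efficacy.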

[5] = In vivo tissue distribution; set-up: species or system Sprague-dawley rats; conditions: rat
Experimental: The rate of distribution to target tissues is an important feature of therapeutic molecules. Tissue distribution of exemplary compounds was performed in mixed-sex Sprague-dawley rats. Test compounds were delivered via tail vein injection (IV) and tissues were collected at Tmax (10 minutes post administration). Animals were deeply anesthetized with isoflurane and whole blood was collected from the right atrium and processed by centrifugation to produce plasma. Animals were then fully perfused with PBS administered to the left ventricle to prevent blood contamination of tissues.
Tissues were collected and homogenized, and compound content in the target tissue was quantified by LC-MS/MS. Tissue distribution rates were determined by dividing the tissue concentration of compound by the plasma concentration and multiplying by 100.

[6] = rat blood plasma, read-out: Unbound Fraction Plasma
[7] = rat brain homogenate, read-out: Unbound Fraction Brain
[8] = IV (tail vein), read-out: TMAX IV
[9] = PO (oral gavage), read-out: TMAX PO
[10] = IV (tail vein), read-out: AUC IV
[11] = IV (tail vein), read-out: CMAX IV
[12] = PO (oral gavage), read-out: AUC PO
[13] = PO (oral gavage), read-out: CMAX PO

Compound | fraction unbound at 4 h [1, 6] | fraction unbound at 4 h [1, 7] | Cytotoxicity [2] | Tmax [3, 8] [min] | Tmax [3, 9] [min] | AUC [3, 10] [ng·h/mL] | Cmax [3, 11] [ng/mL] | AUC [3, 12] [ng·h/mL] | Cmax [3, 13] [ng/mL] | Potency (augmentation of MET phosphorylation) [4] | Tissue Distribution (% Plasma exposure at 10 min post IV dose) Brain [5] | Tissue Distribution (% Plasma exposure at 10 min post IV dose) Cerebellum [5] | Tissue Distribution (% Plasma exposure at 10 min post IV dose) Cortex [5] | Tissue Distribution (% Plasma exposure at 10 min post IV dose) Hippocampus [5] | Tissue Distribution (% Plasma exposure at 10 min post IV dose) Muscle ([5]; muscle) | Tissue Distribution (% Plasma exposure at 10 min post IV dose) Sciatic Nerve [5]
CCC(C)CN1CC2N(Cc3ccc(O)nc3)CCC(=O)N2[C@@H](C)C1=O (stereo partly shown) [Compound 7a] | > 0.9 | 0.5 to 0.9 | ++++ (++++ indicates non-toxic at 100 μM) | < 30 | 30 to 60 | > 3000 | > 3000 | 1 to 100 | 1 to 100 | ++ (++ indicates maximum potency at or above 10 nM) | + (+ indicates distribution between 0.05 and 5%) | + (+ indicates distribution between 0.05 and 5%) | + (+ indicates distribution between 0.05 and 5%) | + (+ indicates distribution between 0.05 and 5%) | ++ (++ indicates distribution between 5 and 39%) | ++++ (++++ indicates distribution above 70%)
CCC(C)CN1CC2N(C(=O)c3ccc(F)cc3)CCC(=O)N2C(C)C1=O (stereo not shown) [Compound 11, 1-(4-fluorobenzoyl)-6-methyl-8-(2-methylbutyl)hexahydro-4H-pyrazino[1,2-a]pyrimidine-4,7(6H)-dione] | < 0.1 | 0.1 to 0.5 | ++++ (++++ indicates non-toxic at 100 μM) | < 30 | < 30 | 1000 to 3000 | 100 to 999 | 100 to 999 | 100 to 999 | +++ (+++ indicates maximum potency at or above 1 nM) | ++ (++ indicates distribution between 5 and 39%) | + (+ indicates distribution between 0.05 and 5%) | + (+ indicates distribution between 0.05 and 5%) | + (+ indicates distribution between 0.05 and 5%) |  | ++ (++ indicates distribution between 5 and 39%)
CCC(C)CN1CC2N(C(=O)c3ccc(C(F)(F)F)c(Cl)c3)CCC(=O)N2C(C)C1=O (stereo not shown) [Compound 12, 1-(3-chloro-4-(trifluoromethyl)benzoyl)-6-methyl-8-(2-methylbutyl)hexahydro-4H-pyrazino[1,2-a]pyrimidine-4,7(6H)-dione] | 0.1 to 0.5 | 0.1 to 0.5 | ++++ (++++ indicates non-toxic at 100 μM) | < 30 | > 60 | 100 to 999 | 100 to 999 | 100 to 999 | 1 to 100 | ++ (++ indicates maximum potency at or above 10 nM) | ++ (++ indicates distribution between 5 and 39%) | ++ (++ indicates distribution between 5 and 39%) | ++ (++ indicates distribution between 5 and 39%) | ++ (++ indicates distribution between 5 and 39%) |  | +++ (+++ indicates distribution between 40 and 69%)
CC1C(=O)N(CCC2CCC2)CC2N(C(=O)c3ccc(C(F)(F)F)cc3)CCC(=O)N12 (stereo not shown) [Compound 20] | 0.1 to 0.5 | 0.5 to 0.9 | ++++ (++++ indicates non-toxic at 100 μM) | < 30 | > 60 | 1000 to 3000 | 1000 to 3000 | 1000 to 3000 | 100 to 999 | + (+ indicates maximum potency at or above 100 nM) | ++++ (++++ indicates distribution above 70%) | ++++ (++++ indicates distribution above 70%) | ++++ (++++ indicates distribution above 70%) | +++ (+++ indicates distribution between 40 and 69%) |  | ++++ (++++ indicates distribution above 70%)
C=CCCN1CC2N(C(=O)c3ccc(C(F)(F)F)cc3)CCC(=O)N2C(C)C1=O (stereo not shown) [Compound 22] | 0.1 to 0.5 | > 0.9 | ++++ (++++ indicates non-toxic at 100 μM) | < 30 | 30 to 60 | 1000 to 3000 | 100 to 999 | 100 to 999 | 100 to 999 | +++ (+++ indicates maximum potency at or above 1 nM) | ++ (++ indicates distribution between 5 and 39%) | ++ (++ indicates distribution between 5 and 39%) | ++ (++ indicates distribution between 5 and 39%) | ++ (++ indicates distribution between 5 and 39%) |  | +++ (+++ indicates distribution between 40 and 69%)
